In patent US8049012B2, “3-aza-spiro[5.5]undecane derivatives and their use as monoamine neurotransmitter re-uptake inhibitors” (Neurosearch A/S, priority 2005, dated 2011):
pIC50: −log10 of the molar value.

Key:
[1] = target: T1, reuptake of serotonine (5-HT) in synaptosomes (Rattus norvegicus, UniProt P31652); assay: Inhibition of 3H-5-HT reuptake in synaptosomes; assay type: biochemical; details: as described in WO 97/16451, read-out: 5-HT-uptake IC50
T1 construct: in synaptosomes as described in WO 97/16451; from tissue
Procedure: (§1) A number of compounds were tested for their ability to inhibit the reuptake of the monoamine neurotransmitters dopamine (DA) noradrenaline (NA) and serotonine (5-HT) in synaptosomes as described in WO 97/16451.
(§2) The test values are given as IC50 (the concentration (μM) of the test substance which inhibits the specific binding of ^3H-DA, ^3H-NA, or ^3H-5-HT by 50%).

[2] = target: T2, reuptake of dopamine (DA) in synaptosomes (Rattus norvegicus, UniProt P23977); assay: Inhibition of 3H-DA reuptake in synaptosomes; assay type: biochemical; details: as described in WO 97/16451, read-out: DA-uptake IC50
T2 construct: in synaptosomes as described in WO 97/16451; from tissue
Procedure: as §1, §2

T1 sequence (P31652 whole entry): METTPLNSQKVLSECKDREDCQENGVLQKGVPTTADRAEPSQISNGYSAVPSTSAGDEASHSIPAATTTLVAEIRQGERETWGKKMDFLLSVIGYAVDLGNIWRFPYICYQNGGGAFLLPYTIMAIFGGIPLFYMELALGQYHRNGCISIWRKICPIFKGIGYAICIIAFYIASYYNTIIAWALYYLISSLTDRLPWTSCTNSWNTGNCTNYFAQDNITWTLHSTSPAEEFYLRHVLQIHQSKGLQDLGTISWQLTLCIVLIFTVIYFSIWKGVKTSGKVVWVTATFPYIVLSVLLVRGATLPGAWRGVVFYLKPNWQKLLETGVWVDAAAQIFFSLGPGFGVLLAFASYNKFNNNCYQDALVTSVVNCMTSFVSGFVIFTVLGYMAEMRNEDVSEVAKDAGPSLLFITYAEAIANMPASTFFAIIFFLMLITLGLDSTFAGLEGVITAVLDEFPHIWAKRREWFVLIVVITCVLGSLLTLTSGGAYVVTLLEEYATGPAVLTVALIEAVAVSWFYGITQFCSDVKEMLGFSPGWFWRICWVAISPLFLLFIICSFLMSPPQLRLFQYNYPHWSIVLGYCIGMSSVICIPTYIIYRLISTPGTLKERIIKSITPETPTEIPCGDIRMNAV
T2 sequence (P23977 whole entry): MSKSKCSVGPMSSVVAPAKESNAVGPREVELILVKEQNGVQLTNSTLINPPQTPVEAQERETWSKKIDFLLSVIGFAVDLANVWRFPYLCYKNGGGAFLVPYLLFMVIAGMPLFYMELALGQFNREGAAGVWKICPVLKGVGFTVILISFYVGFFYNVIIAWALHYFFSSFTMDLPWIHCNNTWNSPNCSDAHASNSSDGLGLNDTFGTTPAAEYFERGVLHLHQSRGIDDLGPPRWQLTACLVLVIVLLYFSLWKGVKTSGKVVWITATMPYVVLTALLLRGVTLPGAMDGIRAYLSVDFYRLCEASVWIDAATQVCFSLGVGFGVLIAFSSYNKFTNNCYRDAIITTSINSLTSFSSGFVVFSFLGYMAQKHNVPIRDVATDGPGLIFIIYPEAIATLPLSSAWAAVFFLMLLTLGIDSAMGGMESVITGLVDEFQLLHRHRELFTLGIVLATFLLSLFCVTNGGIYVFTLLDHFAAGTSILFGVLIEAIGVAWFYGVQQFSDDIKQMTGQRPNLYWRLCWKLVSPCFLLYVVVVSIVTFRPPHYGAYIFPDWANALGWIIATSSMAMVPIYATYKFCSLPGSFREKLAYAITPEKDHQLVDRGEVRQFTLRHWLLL

Row | Structure (SMILES) | pIC50 [1] | melting point [°C] | pIC50 [2]
1 | O=c1ccc2ccc(OC3CCC4(CCNCC4)CC3)cc2o1 [3rd compound of method A, 7-(3-Aza-spiro[5.5]undec-9-yloxy)-chromen-2-one] | 8.70 | 126 to 128 | 5.92
2 | Clc1ccc(NC2CCC3(CCNCC3)CC2)cc1Cl [2nd last compound of method A, (3-Aza-spiro[5.5]undec-9-yl)-(3,4-dichloro-phenyl)-amine] | 8.64 | 128 to 132 | 6.31
